# Results taken from ChEMBL document CHEMBL4033678, “A fragment-based approach leading to the discovery of a novel binding site and the selective CK2 inhibitor CAM4066” (Bioorg Med Chem, 2017).
# Activity calls are given as the source filed them. The rule behind the calls is not given here.
# Target: Casein kinase II subunit alpha (Homo sapiens) (UniProt P68400)
# Sequence (P68400 whole entry, looked up): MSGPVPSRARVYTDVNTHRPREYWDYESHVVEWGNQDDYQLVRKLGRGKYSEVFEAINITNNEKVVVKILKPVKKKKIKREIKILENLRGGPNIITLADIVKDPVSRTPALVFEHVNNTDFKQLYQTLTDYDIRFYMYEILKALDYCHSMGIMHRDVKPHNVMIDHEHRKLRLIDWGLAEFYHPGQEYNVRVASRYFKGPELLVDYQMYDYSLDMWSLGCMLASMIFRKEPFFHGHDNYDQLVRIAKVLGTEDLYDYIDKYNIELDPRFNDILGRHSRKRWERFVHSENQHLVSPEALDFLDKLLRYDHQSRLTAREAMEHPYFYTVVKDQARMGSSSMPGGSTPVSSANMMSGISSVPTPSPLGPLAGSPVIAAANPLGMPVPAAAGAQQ
SMILES,ΔTm,deltaTm
O=C(O)C(=O)Cc1ccccc1,-0.6 °C,
Cc1ccc(O)c(C(=O)O)c1,4.1 °C,
COc1cc(CC(=O)O)ccc1O,,inactive
O=C(O)c1cccc(C(=O)O)n1,-0.5 °C,
O=C(O)Cc1cc(=O)oc2ccccc12,,inactive
O=C(O)c1ccc[nH]c1=O,-1.8 °C,
O=C(O)Cc1ccc(Cl)c(Cl)c1,0.7 °C,
Nc1cc(Br)cnc1N,,inactive
O=C(O)c1ccc2cc[nH]c2c1,3 °C,
NNc1ccc(C(=O)O)cc1,3.8 °C,
O=C(O)c1cc2cc(F)ccc2[nH]1,4.1 °C,
O=C(O)c1ccc(O)c(O)c1,2.4 °C,
O=C(O)c1ccc2ccccc2n1,,inactive
OC1CCC(N2CCNCC2)CC1 (stereo not drawn),0.8 °C,
O=C(O)c1cc2cc(O)ccc2[nH]1,,inactive
O=C(O)c1ccc(O)cc1O,3.2 °C,
CCCCOC(=O)N1CCC(N)CC1,0.3 °C,
Nc1cccc(C(=O)O)c1,0 °C,
NC(=O)c1ccc(O)cc1,,inactive
O=C(O)c1cc(=O)c2ccccc2o1,,inactive
Cc1cc(C(=O)O)ccc1N,0.5 °C,
O=c1cc(O)c2ccccc2o1,3.8 °C,
O=C(O)CCc1ccc(O)cc1,3.1 °C,
